Source: patent US11419843B2, “Small molecule BCL-2 functional converters as cancer therapeutics” (Oregon State University, priority 2016, dated 2022)

Tested on: paclitaxel resistant H460 cells
Assay: Zebrafish xenograft model
Type: in vivo, Zebrafish (Danio rerio)
Conditions: 1 to 4 days post injection
Protocol: Total area signifies total h460 cell area in zebrafish.
Zebrafish (Danio rerio) were housed at the Sinnhuber Aquatic Research Laboratory at Oregon State University in accordance with Institutional Animal Care and Use Committee protocols. Adult 5D Tropical zebrafish were maintained under standard laboratory conditions of 28±1° C. on a 14 hr light/10 hr dark photoperiod in fish water consisting of reverse osmosis water supplemented with a commercially available salt solution (0.6%, Instant Ocean, UnitedPet Group, Inc., Blacksburg, Va., USA). Collected eggs were staged according to Kimmel et al. At 24 hours post fertilization (hpf), zebrafish embryos were maintained in E3 media with phenylthiourea (0.003%, Sigma, USA).
For transplantations, H460 cells were labeled with a CM-DiI dye (Thermo Fisher Sci.) according to the manufacturer's protocol and suspended to a concentration of 2×10^7 cells/mL. […]
For imaging, zebrafish xenografts were anesthetized by emersion in 0.2 mg/mL Tricaine E3 media and imbedded in 0.8% (w/v) low melting point agarose on a glass bottom 96-well plate. […] H460 cancer growth was analyzed using Fiji (Fiji is Just Imagej) software. […] Cancer area was calculated by creating a binary mask from thresholds with the Otsu algorithm and calculating the total area of the resulting segmented objects. […]

Structure (SMILES): CN(Cc1cnc2nc(N)nc(N)c2n1)c1ccc(C(=O)N[C@@H](CCC(=O)O)C(=O)O)cc1 [MTX, (2S)-2-[[4-[(2,4 diaminopteridin-6-yl)methylmethylamino]benzoyl]amino] pentanedioc acid]
- Growth of paclitaxel resistant H460 cells in zebrafish: reduction in paclitaxel resistant H460 growth in vivo
